{"source": "ChEMBL document CHEMBL1147270", "about": "“Discorhabdins S, T, and U, new cytotoxic pyrroloiminoquinones from a deep-water Caribbean sponge of the genus Batzella” (J Nat Prod, 2003)", "format_in_all_cases": "functional, cell-based", "key": {"P388": {"test_system": "P388", "assay": "Cytotoxicity against mouse P388 cells after 48 hrs by MTT assay", "conditions": "P388, 48 h"}, "A549": {"test_system": "A549", "assay": "Cytotoxicity against human A549 cells after 96 hrs by MTT assay", "conditions": "A549, 96 h"}, "PANC-1": {"test_system": "PANC-1", "assay": "Cytotoxicity against human PANC1 cells after 96 hrs by MTT assay", "conditions": "PANC-1, 96 h"}}, "note": "pIC50: −log10 of the molar value."}
{"smiles": "CSC1=CC(=O)C(Br)=C[C@]12CCNC1=C2c2nccc3cn(C)c(c23)C1=O", "note": "[DISCORHABDIN S]", "values": [{"measurement": "pIC50", "setting": "P388", "result": 5.51}, {"measurement": "pIC50", "setting": "A549", "result": "< 5.30"}, {"measurement": "pIC50", "setting": "PANC-1", "result": 5.59}]}
{"smiles": "CSC1=CC(=O)C(Br)=C[C@]12C=CNC1=C2c2nccc3cn(C)c(c23)C1=O", "note": "[DISCORHABDIN T]", "values": [{"measurement": "pIC50", "setting": "P388", "result": "< 5.30"}, {"measurement": "pIC50", "setting": "A549", "result": "< 5.30"}, {"measurement": "pIC50", "setting": "PANC-1", "result": 6.15}]}
{"smiles": "CSC1=CC(=O)C(Br)=C[C@]12C=CNC1=C2C2=NCCc3cn(C)c(c32)C1=O", "note": "[DISCORHABDIN U]", "values": [{"measurement": "pIC50", "setting": "P388", "result": 6.77}, {"measurement": "pIC50", "setting": "A549", "result": 6.77}, {"measurement": "pIC50", "setting": "PANC-1", "result": 7.16}]}
